Literature values as cited in patent US20070117750A1, “METHOD FOR ENHANCED OCULAR DRUG PENETRATION” (priority 2005, published 2007).

Assays:
[1] = topical ocular dose of 225 μg
[2] = topical instillation

Row | systemic bioavailability [1] [%] | peak concentration time, aqueous humor [2] [min] | peak concentration time, iris ciliary/body ([2]; or first time interval that can be measured) [min] | Compound
1 | 74 | – | – | CC(C(=O)O)c1ccc(-c2ccccc2)c(F)c1 (stereo not drawn) [flurbiprofen]
2 | – | 15 | 2 | Clc1cccc(Cl)c1N=C1NCCN1 [clonidine]
